Like-named read-outs stand apart in the source and are kept apart here.
Assays:
ERBB4 = ERBB4 (Homo sapiens, UniProt Q15303); assay: biochemical
Method: (§1) Kinase activity, unless otherwise indicated, was measured in vitro using an electrophoretic mobility shift assay (MSA). The phosphorylation of a peptide substrate by BTK and other kinases was measured. The kinase reactions were assembled in a total volume of 25 μL per well in 384 well plates. The following was added to each well: compound buffer (or control); enzyme buffer; and substrate buffer, as further described below.
(§2) Enzyme and compound/inhibitor were optionally pre-incubated. To each well was added: 8 μL of 2.5×ATP and substrate in 1× Master Buffer (1× Master Buffer as described above). The plate was incubated at room temperature for 3 hours. […] OG488 was Oregon Green dye, which was conjugated to the peptide substrate. […] The kinase activity for the kinases in Table 3 were measured at 3 hours incubation time, except that in the case of MAP2K1 and MAP2K2 assay, pre-activation of ERK was done for 30 min with 6 μM of ATP, and then the detection of activated ERK in the presence of compounds was done after 60 minutes of incubation.
(§3) The terminated reactions were analyzed using a 12 channel LABCHIP® 3000 microfluidic detection instrument (available from Caliper Life Sciences, Waltham, Mass.). […] Change in the relative fluorescence intensity of the substrate and product peaks was the parameter measured, reflecting enzyme activity. […]

[1] = Chemical inhibition in human hepatocytes (intrinsic clearance with and without CYP inhibitors); assay type: in vitro ADME; settings: human, human hepatocyte suspension
Method: (§4) The contribution of CYPs to the metabolism of Compound 6 was evaluated in human hepatocyte suspension (about 500,000 cells/mL) (hepatocytes from BioIVT, Inc.) treated with or without azamulin (CYP3A4 mechanism-based inhibitor) or 1-aminobenzotriazole (ABT)/tienilic acid (a pan-CYP inhibitor regimen) for 30 minutes. The hepatocyte suspension with inhibitors was preincubated with 2× azamulin or 1-ABT/tienilic acid in Williams' media E and then added to 2× Compound 6 in media to give a final concentrations of 2.5 μM azamulin or 0.5 mM 1-ABT/1.5 μM tienilic acid and 0.5 μM Compound 6, respectively.
(§5) Final incubation volume was 25 μL. Samples were incubated in 384-well plates at 37° C. with 5% CO2 and gentle shaking. At each time point (0, 15, 30, 60, 120, and 240 minutes), samples in the incubation plates were quenched with acetonitrile:MeOH (95:5, v:v) with carbutamide as internal standard (quench ration 3:1). The samples were centrifuged, and the supernatant was analyzed using LC-MS/MS.
(§6) Quantitation of the substrate depletion in recombinant CYPs and FMO3 phenotyping, chemical inhibition in hepatocytes, and enzyme kinetics assays were analyzed by monitoring substrate depletion using LC-MS/MS.
(§7) The intrinsic clearance of Compound 6 in rCYP and hepatocytes was determined by integrating the parent peak on the chromatograms, and the extent of substrate depletion measured by comparing parent peak area loss over time. The elimination rate constant (k, transformation of % parent remaining versus incubation time: y=a*e^−(kt). Where y is the % parent remaining, t (min) is the time point within the incubation, and a is the % parent remaining at time 0 minute. From this, intrinsic clearance in rCYP (CLint, CYP, expressed in units of μL/min/pmol CYP) and in hepatocytes (CLint, hep, expressed in units of μL/min/million cells were derived using the equations below:
(§8) Clint,hep=k*1000/Cell Concentration (million cells/mL)
(§9) The fraction of metabolism inhibited by the chemical treatment in human hepatocytes was calculated using the equation:
(§10) fm,CYP=[Clint,hep(no inhibitor)−Clint,hep(PanCYP or azamulin])/[Clint, hep(no inhibitor)]

[2] = test system: human hepatocyte suspension; assay: as above; assay type: in vitro ADME
Method: as §4, §5, §6, §7, §8, §9, §10

EGFR = EGFR (Homo sapiens, UniProt P00533); assay: Other kinase MSA: EGFR; assay type: biochemical; settings: 5 μM ATP, CSKtide substrate, 3 hours; read-out: IC50, Enzyme EGFR
Sequence of EGFR (P00533 25-1210, species assumed): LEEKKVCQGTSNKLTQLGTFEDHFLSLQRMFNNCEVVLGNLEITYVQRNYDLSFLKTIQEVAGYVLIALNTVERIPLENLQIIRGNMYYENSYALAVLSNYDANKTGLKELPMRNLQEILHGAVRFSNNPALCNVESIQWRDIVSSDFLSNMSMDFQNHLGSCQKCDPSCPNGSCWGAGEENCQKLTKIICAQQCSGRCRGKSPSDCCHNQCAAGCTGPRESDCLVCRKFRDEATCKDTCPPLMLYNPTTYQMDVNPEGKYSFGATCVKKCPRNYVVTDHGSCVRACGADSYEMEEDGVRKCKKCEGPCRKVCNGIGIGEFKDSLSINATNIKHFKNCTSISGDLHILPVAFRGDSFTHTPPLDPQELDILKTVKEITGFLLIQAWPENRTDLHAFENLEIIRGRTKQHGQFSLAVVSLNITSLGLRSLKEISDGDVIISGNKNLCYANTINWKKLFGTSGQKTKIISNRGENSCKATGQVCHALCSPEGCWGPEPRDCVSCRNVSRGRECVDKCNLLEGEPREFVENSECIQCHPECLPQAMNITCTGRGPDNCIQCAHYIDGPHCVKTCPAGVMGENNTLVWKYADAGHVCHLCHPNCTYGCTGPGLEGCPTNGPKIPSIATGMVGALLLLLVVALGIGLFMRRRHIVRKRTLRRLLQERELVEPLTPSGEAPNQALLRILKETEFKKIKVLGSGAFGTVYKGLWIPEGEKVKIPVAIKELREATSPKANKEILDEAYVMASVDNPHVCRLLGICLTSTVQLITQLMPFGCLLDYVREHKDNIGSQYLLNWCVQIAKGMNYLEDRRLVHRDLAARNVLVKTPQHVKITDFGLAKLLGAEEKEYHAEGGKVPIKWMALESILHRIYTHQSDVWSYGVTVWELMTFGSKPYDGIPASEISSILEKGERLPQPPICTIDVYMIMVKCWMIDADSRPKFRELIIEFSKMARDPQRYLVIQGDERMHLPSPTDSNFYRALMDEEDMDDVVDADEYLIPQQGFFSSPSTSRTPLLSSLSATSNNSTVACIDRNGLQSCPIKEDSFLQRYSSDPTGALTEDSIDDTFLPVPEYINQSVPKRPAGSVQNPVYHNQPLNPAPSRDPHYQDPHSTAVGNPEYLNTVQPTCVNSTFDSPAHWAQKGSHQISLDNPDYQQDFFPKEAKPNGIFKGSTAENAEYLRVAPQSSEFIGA
Method: as §1, §2, §3

Sequence of ERBB4 (Q15303 26-1308, species assumed): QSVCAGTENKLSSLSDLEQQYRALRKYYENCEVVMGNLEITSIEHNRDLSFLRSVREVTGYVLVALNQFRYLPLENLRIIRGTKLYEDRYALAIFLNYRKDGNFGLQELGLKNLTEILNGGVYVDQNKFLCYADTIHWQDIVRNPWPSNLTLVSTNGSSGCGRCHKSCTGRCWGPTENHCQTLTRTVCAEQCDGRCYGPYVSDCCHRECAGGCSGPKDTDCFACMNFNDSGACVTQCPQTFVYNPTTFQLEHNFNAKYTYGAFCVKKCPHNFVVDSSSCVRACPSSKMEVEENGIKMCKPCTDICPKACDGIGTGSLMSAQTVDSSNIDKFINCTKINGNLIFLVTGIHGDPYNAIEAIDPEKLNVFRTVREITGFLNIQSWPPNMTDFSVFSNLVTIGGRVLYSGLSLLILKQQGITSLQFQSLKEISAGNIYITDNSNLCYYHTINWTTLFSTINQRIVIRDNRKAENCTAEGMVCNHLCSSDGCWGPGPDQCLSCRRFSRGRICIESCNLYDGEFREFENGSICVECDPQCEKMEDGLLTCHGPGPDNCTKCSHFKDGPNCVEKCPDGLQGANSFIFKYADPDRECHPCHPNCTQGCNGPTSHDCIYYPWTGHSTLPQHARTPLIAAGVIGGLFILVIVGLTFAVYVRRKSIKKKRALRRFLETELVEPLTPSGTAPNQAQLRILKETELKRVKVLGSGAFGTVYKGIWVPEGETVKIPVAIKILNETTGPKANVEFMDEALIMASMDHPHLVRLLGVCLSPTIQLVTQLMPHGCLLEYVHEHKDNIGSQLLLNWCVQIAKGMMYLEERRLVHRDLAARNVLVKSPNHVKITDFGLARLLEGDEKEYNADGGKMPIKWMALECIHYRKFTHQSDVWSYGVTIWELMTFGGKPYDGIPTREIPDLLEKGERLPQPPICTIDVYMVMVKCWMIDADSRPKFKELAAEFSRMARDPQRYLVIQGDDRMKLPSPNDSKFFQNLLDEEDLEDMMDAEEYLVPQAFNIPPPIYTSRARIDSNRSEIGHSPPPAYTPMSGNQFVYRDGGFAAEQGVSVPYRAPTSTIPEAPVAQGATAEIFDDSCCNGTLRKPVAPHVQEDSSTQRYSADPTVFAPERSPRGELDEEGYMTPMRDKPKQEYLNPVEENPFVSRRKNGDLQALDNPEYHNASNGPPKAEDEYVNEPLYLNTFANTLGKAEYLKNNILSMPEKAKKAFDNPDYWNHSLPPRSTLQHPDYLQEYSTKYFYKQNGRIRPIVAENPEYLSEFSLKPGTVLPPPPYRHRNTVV

Question: Which IC50 (ERBB4) does the source give for `C=CC(=O)N1CCN([C@@H]2CCNc3c2nn(-c2ccc(Oc4ccccc4)cc2)c3C(N)=O)CC1` [Example 6, (7R)-2-(4-phenoxyphenyl)-7-[4-(prop-2-enoyl)piperazin-1-yl]-4,5,6,7-tetrahydro-2H-pyrazolo[4,3-b]pyridine-3-carboxamide] here?
Answer: 757 nM

Question: What about the hepatocyte CLint at 0.5 μM ([1]; 0.5 μM Compound 6, 0.5 mM 1-ABT/1.5 μM tienilic acid, read-out: CLint, PAN CYP) of the same molecule?
Answer: 8.23 µL/min/1e6 cells

Question: And the hepatocyte CLint at 0.5 μM ([1]; 0.5 μM Compound 6, no inhibitor, read-out: CLint, no inhibitor)?
Answer: 13.3 µL/min/1e6 cells

Question: And the hepatocyte CLint at 0.5 μM ([1]; with 2.5 μM azamulin (CYP3A4 mechanism-based inhibitor), 0.5 μM Compound 6, 2.5 μM azamulin (CYP3A4 inhibitor), read-out: CLint, Azamulin)?
Answer: 9.15 µL/min/1e6 cells

Question: What about the “% Total CYP Contribution In Vitro” value ([2]; calculated from the PAN CYP inhibitor regimen of 1-ABT and tienilic acid, human hepatocyte suspensions) of the same molecule?
Answer: 38.3%

Question: And the “CYP contribution to the hepatic metabolism” value ([2]; following incubation with a pan-CYP inhibitor cocktail in human hepatocytes)?
Answer: approximately 30%

Question: And the “% Inhibition by azamulin” value ([2]; fraction of clearance in human hepatocytes inhibited by azamulin)?
Answer: 31.4%

Question: What about the “non-CYP hepatic enzymes contribution to the remaining clearance” value ([2]; human hepatocytes) of the same molecule?
Answer: about 70%

Question: What about the IC50 (EGFR) of the same molecule?
Answer: 844 nM

From patent US20220213092A1, “BICYCLIC PYRAZOLE BRUTON'S TYROSINE KINASE INHIBITORS” (AbbVie Inc., priority 2020, published 2022)
